Results: the supplement of paper PMC4862054

Legend:
Settings in all cases: incubation time: 72 h
BT-474 [1] = experiment: normalised response (% of control), CellTox Green; higher = less cell death (100 = DMSO, 0 = benzethonium chloride kill control)
In short: (§1)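 Each value is the plate-normalised signal at one concentration of the series. Breast cancer cell lines (20 µl suspension) were incubated 72 h in 384-well plates with compound at 5 concentrations in 10-fold steps over a compound-specific 10,000-fold range. CellTox Green and then CellTiter-Glo were read, and each plate was scaled to 0.1 % DMSO (100) and a positive kill control (0).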

BT-549 [2] = experiment: as above
In short: as §1

CAL-120 [3] = experiment: as above
In short: as §1

CAL-148 [4] = experiment: as above
In short: as §1

CAL-51 [5] = experiment: as above
In short: as §1

CAL-85-1 [6] = experiment: as above
In short: as §1

DU-4475 [7] = experiment: as above
In short: as §1

HCC1143 [8] = experiment: as above
In short: as §1

HCC1599 [9] = experiment: as above
In short: as §1

HCC1937 [10] = experiment: as above
In short: as §1

HDQ-P1 [11] = experiment: as above
In short: as §1

Hs578T [12] = experiment: as above
In short: as §1

MCF-10A [13] = experiment: as above
In short: as §1

MDA-MB-231 [14] = experiment: as above
In short: as §1

MDA-MB-436 [15] = experiment: as above
In short: as §1

MDA-MB-453 [16] = experiment: as above
In short: as §1

MDA-MB-468 [17] = experiment: as above
In short: as §1

MFM-223 [18] = experiment: as above
In short: as §1

BT-474 [19] = experiment: normalised response (% of control), CellTiter-Glo; higher = more viable cells (100 = DMSO, 0 = benzethonium chloride kill control)
Protocol: (§2)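 DSRT, 72 h incubation, CellTox Green / CellTiter-Glo readout. Signal is normalised to DMSO and benzethonium chloride controls. Value is the normalised response at dose 3.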

BT-549 [20] = experiment: as above
Protocol: as §2

CAL-120 [21] = experiment: as above
Protocol: as §2

CAL-148 [22] = experiment: as above
Protocol: as §2

CAL-51 [23] = experiment: as above
Protocol: as §2

CAL-85-1 [24] = experiment: as above
Protocol: as §2

DU-4475 [25] = experiment: as above
Protocol: as §2

HCC1143 [26] = experiment: as above
Protocol: as §2

HCC1599 [27] = experiment: as above
Protocol: as §2

HCC1937 [28] = experiment: as above
Protocol: as §2

HDQ-P1 [29] = experiment: as above
Protocol: as §2

Hs578T [30] = experiment: as above
Protocol: as §2

MCF-10A [31] = experiment: as above
Protocol: as §2

MDA-MB-231 [32] = experiment: as above
Protocol: as §2

MDA-MB-436 [33] = experiment: as above
Protocol: as §2

MDA-MB-453 [34] = experiment: as above
Protocol: as §2

MDA-MB-468 [35] = experiment: as above
Protocol: as §2

MFM-223 [36] = experiment: as above
Protocol: as §2

SK-BR-3 = experiment: as above
Protocol: as §2

| SMILES | normalised response (BT-474 [1]) | normalised response (BT-549 [2]) | normalised response (CAL-120 [3]) | normalised response (CAL-148 [4]) | normalised response (CAL-51 [5]) | normalised response (CAL-85-1 [6]) | normalised response (DU-4475 [7]) | normalised response (HCC1143 [8]) | normalised response (HCC1599 [9]) | normalised response (HCC1937 [10]) | normalised response (HDQ-P1 [11]) | normalised response (Hs578T [12]) | normalised response (MCF-10A [13]) | normalised response (MDA-MB-231 [14]) | normalised response (MDA-MB-436 [15]) | normalised response (MDA-MB-453 [16]) | normalised response (MDA-MB-468 [17]) | normalised response (MFM-223 [18]) | normalised response (BT-474 [19]) | normalised response (BT-549 [20]) | normalised response (CAL-120 [21]) | normalised response (CAL-148 [22]) | normalised response (CAL-51 [23]) | normalised response (CAL-85-1 [24]) | normalised response (DU-4475 [25]) | normalised response (HCC1143 [26]) | normalised response (HCC1599 [27]) | normalised response (HCC1937 [28]) | normalised response (HDQ-P1 [29]) | normalised response (Hs578T [30]) | normalised response (MCF-10A [31]) | normalised response (MDA-MB-231 [32]) | normalised response (MDA-MB-436 [33]) | normalised response (MDA-MB-453 [34]) | normalised response (MDA-MB-468 [35]) | normalised response (MFM-223 [36]) | normalised response (SK-BR-3) |
| --- | --- | --- | --- | --- | --- | --- | --- | --- | --- | --- | --- | --- | --- | --- | --- | --- | --- | --- | --- | --- | --- | --- | --- | --- | --- | --- | --- | --- | --- | --- | --- | --- | --- | --- | --- | --- | --- |
| COc1ccc(-c2ccc3c(N4CCOC[C@@H]4C)nc(N4CCOC[C@@H]4C)nc3n2)cc1CO [AZD8055] (100 nM) | 96.5% | 103% | 98.2% | 79.2% | 82.3% | 104% | 94.9% | 80.1% | 87.7% | 97.7% | 109% | 93.9% | 84.6% | 94.6% | 97.7% | 85.5% | 13.6% | 67% | 72% | 40.2% | 41.5% | 49.5% | 35.7% | 41.1% | 80.1% | 45.1% | 93% | 66.9% | 51.3% | 49.7% | 50.4% | 62.3% | 51.5% | 42.1% | 47.3% | 36.9% | 27.5% |
| COc1ccccc1S(=O)(=O)Nc1ccc2c(c1)CN(C)C(=O)N2 [PFI-1] (100 nM) | 105% | 118% | 106% | – | 102% | 115% | 110% | 82.6% | 111% | 51.5% | 78.4% | 96.8% | 92.9% | 123% | 79.4% | 115% | 125% | 106% | 97.4% | 99.4% | 106% | 105% | 79% | 96.6% | 100% | 100% | 87.7% | 91.4% | 94.5% | 99.6% | 111% | 99.5% | 104% | 105% | 96.8% | 104% | 105% |
| CC[C@]1(O)C[C@H]2CN(CCc3c([nH]c4ccccc34)[C@@](C(=O)OC)(c3cc4c(cc3OC)N(C=O)[C@H]3[C@@](O)(C(=O)OC)[C@H](OC(C)=O)[C@]5(CC)C=CCN6CC[C@]43[C@@H]65)C2)C1 [Vincristine] (10 nM) | 76.7% | 77.1% | 93.9% | 71.5% | 73.2% | 45% | 98.7% | 98.8% | 90.7% | 93.3% | 44.8% | 88.5% | 51.6% | 53.4% | 56% | 87.5% | -5.1% | 94.7% | 71% | 38.2% | 66.8% | 64.6% | 86.8% | 30.6% | 86.3% | 53.5% | 63.5% | 75.7% | 71% | 82.6% | 60.5% | 76.7% | 70.8% | 70.6% | 20.9% | 90.8% | 17.8% |
| CC(C)c1c(C(=O)Nc2ccccc2)c(-c2ccccc2)c(-c2ccc(F)cc2)n1CC[C@@H](O)C[C@@H](O)CC(=O)O [Atorvastatin] (100 nM) | 103% | 98.1% | 98.4% | 80.9% | 109% | 94.1% | 103% | 109% | 88.1% | 81.6% | 86.4% | 93.4% | – | 105% | 109% | 99.2% | 120% | 98% | 94.8% | 94% | 103% | 108% | 103% | 103% | 98.6% | 103% | 105% | 102% | 98% | 102% | 98.4% | 97.5% | 91.5% | 111% | 93.8% | 98.9% | 98.9% |
| C[C@]12CC[C@H](O)CC1=CC[C@@H]1[C@@H]2CC[C@]2(C)C(c3cccnc3)=CC[C@@H]12 [Abiraterone] (50 nM) | 100% | 96.5% | 101% | 106% | 105% | 95% | 101% | 109% | 110% | 116% | 111% | 107% | 63.7% | 58% | 96.5% | 104% | 128% | 108% | 104% | 101% | 106% | 108% | 81.5% | 105% | 107% | 104% | 124% | 95.1% | 100% | 104% | 99.8% | 103% | 99.7% | 99.7% | 101% | 105% | 103% |
| CCCCCCCCc1ccc(CCC(N)(CO)CO)cc1 [Fingolimod] (100 nM) | 101% | 88.7% | 104% | 87.9% | 109% | 102% | 100% | 103% | 111% | 115% | 91.7% | 110% | 95.9% | 78.8% | 97.3% | 109% | 122% | 103% | 99.9% | 95.8% | 97% | 101% | 92.5% | 105% | 99.7% | 100% | 107% | 96% | 103% | 97.4% | 105% | 100% | 100% | 97.4% | 107% | 106% | 107% |
| NS(=O)(=O)OC[C@@H]1C[C@@H](n2ccc3c(N[C@H]4CCc5ccccc54)ncnc32)C[C@@H]1O [Pevonedistat] (100 nM) | 102% | 106% | 102% | 94.7% | 36.4% | 81.5% | 97.8% | 120% | 104% | 119% | 99.8% | 107% | 108% | 119% | 102% | 112% | 128% | 65.2% | 114% | 73.2% | 91.1% | 120% | 51.5% | 77.8% | 68.8% | 90.1% | 75.6% | 96.3% | 102% | 98.7% | 113% | 118% | 82.9% | 88.9% | 56.2% | 79.1% | 35.6% |
| O=C(O)CCCc1ccc(N(CCCl)CCCl)cc1 [Chlorambucil] (100 nM) | 101% | 101% | 92.9% | – | 85.3% | 94.9% | 102% | 94.9% | 99% | 98.2% | 107% | 105% | 101% | 102% | 84.8% | 102% | 118% | 98.8% | 98.7% | 108% | 96.6% | 107% | 79.5% | 105% | 104% | 103% | 100% | 94% | 103% | 102% | 99.9% | 106% | 99.3% | 104% | 106% | 98.6% | 106% |
